The text below walks through data of US20260335223A1, “Topical Copolymer Formulations for Hydrophobic Drug Delivery” (1376683 B.C. LTD, priority 2023, published 2026).

Each structure is given as a SMILES string. Converted amounts (≈) assume the structure as drawn.

The Solubility is the dissolved amount per volume that the medium holds. Low values mean little dissolved substance, high ones much dissolved substance.

A short description of data set [1]: Skin permeation, Franz diffusion cell. The note with it: topical, with DBC3333 vs formulation without; 3 hours.
Source text: To collect the data illustrated in this Example, fresh pig skin is placed on a Franz diffusion cell and the formulation of interest is applied to the outer skin surface. After three hours the cell is dismantled and the exposed circular area excised. […] The amount of drug in each section is then quantitated and expressed at mass of drug/gram of tissue.
For cannabinoid aqueous gel preparation for skin permeation study and therapeutic efficacy studies, a water-based gel comprised of water, phenoxyethanol, ethylhexyl glycerin, acrylates/C10-30 alkyl acrylate crosspolymer, sodium hydroxide and allantoin, was used as the gel base. Gel base and diblock copolymer were weighed, mixed together and heated using a microwave for 4 seconds. A homogenous gel containing diblock copolymer was achieved via levigation of the mixture. Gel base without diblock copolymer was weighed and used for the control formula. Commercial cannabinoid-containing extracts containing known quantities of cannabinoid were weighed and dissolved in a pre-weighed amount of cacao butter over 45 °C heat. The cacao butter cannabinoid mixture was then weighed and incorporated into the gel base, with or without diblock copolymer, via levigation to produce the final gel samples. Cannabinoid content of the final gel samples was analyzed using HPLC. […] Gel samples were stored in air-tight containers at 4 °C until the time of use.
For carboxymethyl cellulose (CMC) gel and Glaxal® base preparation for skin permeation study of cannabidiol (CBD), curcumin, capsaicin and finasteride, CMC gel was made using medium viscosity CMC as a 2% w/v aqueous solution following overnight stirring. […] For CMC preparations containing DBC, DBC was weighed into a glass vial and a small volume of the drug of interest in acetonitrile:methanol (50:50) was added to dissolve all. The solution was then dried for 2 hours in a warm oven (50 °C). In all cases the ratio of DBC:drug was 95:5. A known weight of CMC gel was then added to the warmed vial containing the dried DBC/drug mixture and vortexed to disperse and dissolve all drug. Glaxal® base was used as received. Glaxal® base containing drug was prepared by first weighing drug and dissolving in a known volume of ethanol or methanol. The ethanol or methanol drug solution was then added to a weighed amount of Glaxal® base followed by levigation of the mixture. For CBD, capsaicin, docetaxel and finasteride, it was not possible to prepare CMC gels without the use of DBC, due to drug insolubility. Therefore Glaxal® base preparations containing these drugs were employed as DBC-free comparison groups (control) for skin permeation studies.
For carboxymethyl cellulose (CMC) gel and Glaxal® base preparation for skin permeation study of docetaxel, 2% CMC gel was prepared as described above. Docetaxel (DTX) 6 mg was weighed into 190 μL of acetonitrile and 10 μL of 3H radiolabeled DTX was added. Then 66 μL (i.e., 2 mg of drug) was pipetted into a vial with 40 mg of DBC to dissolve all. The contents were dried down and 1 mL of warm 2% CMC gel was added with vortexing to dissolve all DBC and drug as a micellar solution. For Glaxal® paste 66 μL of the drug solution was dried down to approximately 20 μL and 1 gram of Glaxal® base added to disperse the drug.
Fresh pig skin was obtained from a butcher and defatted to 5 mm thickness and shaved. 2 cm^2 pieces were cut with scissors and placed on Franz diffusion cells filled with PBS and clamped. 100 mg of each formulation was weighed and placed on top of the tissue and capped. The cells were placed in a 37 °C humid incubator for three hours and then dismantled. The tissue was washed three times with PBS and the centre drug-loaded circle of tissue was cut out with scissors and snap frozen. Tissues were sectioned by cryosectioning into 50 μm cuts pooled into groups of five.
Data set [2] in a line: Curcumin release from PVA film. To be noted: for Curcumin released from PVA film: by 2 hours. The format is physicochemical. As to the method:
The 88% hydrolyzed version of PVA was used with a molecular weight of between 100000 and 150000 daltons. PVA was dissolved in water at 10% w/v by heating to 90 °C for one hour and then cooled. Separately, 40 mg of diblock copolymer DBC3333 was weighed into a glass vial and 100 μL of curcumin solution (10 mg/mL in ethanol) was added to 2 mL of the 10% PVA solution with mixing to give the non diblock casting solutions. Alternatively, 100 μL of the curcumin solution was added to 40 mg of diblock copolymer to dissolve it and then this was mixed with 2 mL of PVA solution. These give PVA films containing 20% diblock with approximately 0.5% curcumin (1 mg curcumin per film). The films were cast in small petri dishes and air dried at 37 °C for 4 hours.
This observational solubilization experiment added 2 mL of water to the film at t=0 and then at 5, 10, 25 mins the liquid was removed into a test tube for observation.
A second set of the same films were prepared and used for a drug release experiment whereby 10 mL of PBS (10 mM pH 7.4) was added to the films and at specified time points, 100 μL of solution was collected and added to 400 μL of water. The absorbance of these solutions was then measured at 420 nm by uv/vis absorbance.

The nature of data set [3]: Limit of aqueous solubility with/without PCL25 (HPLC or UV/VIS). The format is physicochemical. To be noted: water. As to the method:
Aqueous solubility studies involving diblock copolymer PCL25 (63:37 MePEG:PCL MW 7900 Da) were carried out as follows. 1 mg of drug (either paclitaxel, capsaicin or curcumin) was added to glass vials, designated as either “control” or “diblock copolymer”. Diblock copolymer was omitted from control vials and 100 mg PCL25 was added to diblock copolymer vials. The contents of all vials were then dissolved in 300 microlitres of acetonitrile. The contents were dried at 60 °C for two hours and then 1 mL of warm water (40 °C) was added with vortexing for five minutes. To determine the limit of drug solubility, the contents of each vial were then placed in a microcentrifuge tube and centrifuged at 14000×g for 3 minutes to sediment any undissolved solids. The supernatant was diluted 50% in acetonitrile and the drug was quantitated by HPLC for paclitaxel and capsaicin or by UV/VIS spectrometry (420 nm) for curcumin after 100 fold dilution in acetonitrile for this drug. HPLC conditions were detection at 228 nm for both drugs and a mobile phase of 60:40 (paclitaxel) or 50:50 (capsaicin) acetonitrile:water flowing at 1 mL/min. Calibration standard for all drugs were run in acetonitrile.

A further data set concerns osteoarthritis. Briefly: Therapeutic efficacy case reports, osteoarthritis (VAS pain). Format: in vivo, human. As to the method:
(§1) In all cases, therapeutic efficacy studies were carried out with volunteer participants under the supervision of a healthcare practitioner. In all cases, informed consent was obtained. Participants were blinded to the DBC content of the gel samples provided. Participants were offered samples of control cannabinoid gel (no DBC) and asked to apply to the affected area twice daily and as needed for one week. Participants were told to maintain adherence to any prescribed medications while using the cannabinoid gel. Participants were contacted immediately after the one week treatment period for assessment. Following a washout period ranging from 4 to 12 weeks, participants were offered samples of DBC cannabinoid gel and asked to apply in the same manner, twice daily and as needed for one week, while maintaining adherence to any prescribed medications. Participants were contacted immediately after the one week treatment period for assessment. Efficacy was assessed using average daily 10-point visual analogue scale (VAS) pain score prior to beginning treatment and immediately after treatment. Participants were also asked to report all adverse effects experienced, if any, such as skin irritation, skin rash, localized or diffuse discomfort or pain, dizziness, fatigue, impaired concentration, feelings of euphoria or dysphoria, or other psychotropic effects.

The conditions of data set [4]: background statement; cited from earlier work.
For data set [5] the following is noted: diblock copolymer micelles, background; cited from earlier work.
A further data set deals with rheumatoid arthritis. Briefly: Therapeutic efficacy case report, rheumatoid arthritis (VAS pain). Format: in vivo, human. As to the method: as §1

With `COc1cc(/C=C/C(=O)CC(=O)/C=C/c2ccc(O)c(OC)c2)ccc1O` [Curcumin, curcumin], in data set [1], the Skin permeation entry is recorded as “enhanced skin permeation”. The “Curcumin release rate from PVA film” value in data set [2] (DBC3333 20% w/w to PVA vs no diblock) is given as “much faster”. The “Curcumin released from PVA film” value in data set [2] (DBC3333 20% w/w to PVA) was “all drug released”; in data set [2] (no diblock copolymer, room temperature) it was 6%. Further, in data set [2] (diblock containing film vs no diblock film), the “Yellow colour in dish (observational solubilization)” value is “markedly stronger”. For the same molecule, the Solubility in data set [3] (control, no diblock copolymer) was under 1 µg/mL; in data set [3] (with diblock copolymer PCL25 100 mg/mL), 1000 µg/mL (≈ 2710 µM).
With `CC(=O)Nc1ccc(O)cc1` [acetaminophen], the “Participant's description of efficacy/pain” value with osteoarthritis (Case 1) is recorded as “little to no pain relief or prevention of pain during or after exercise”.
`CC[C@@]1(O)C(=O)OCc2c1cc1n(c2=O)Cc2cc3ccccc3nc2-1` [camptothecin]: the Water solubility in data set [4] is 1 µg/mL. Moreover, in data set [5], the “Formation of drug-loaded micelles” value was “do not form drug-loaded micelles”.
For `CC(C)Cc1ccc(C(C)C(=O)O)cc1` (stereo not shown) [ibuprofen], in the data set on rheumatoid arthritis (Case 4), the “Participant's description of efficacy” value was “mildly effective”. Besides, the “VAS pain level after ibuprofen 400 mg” value in the data set with rheumatoid arthritis (Case 4, history, from 4) stood at 3. Moreover, in the data set with osteoarthritis (Case 1, history, used when pain level reaches 4), the “VAS pain level after as-needed medication” value was determined as 3.
